Measured values taken from patent US11219692B2, “Porphyrin modified telodendrimers” (THE REGENTS OF THE UNIVERSITY OF CALIFORNIA, priority 2012, dated 2022).

Columns and labels:
[1] = test system: SKOV-3 ovarian cancer xenograft; assay: In vivo therapeutic study (PTT/PDT with or without DOX); set-up: species or system nude mice; details: DOX 2.5 mg/kg, NP 25 mg/kg, light 0.25 W cm^−2 for 2 min; versus PBS control
Description: Transgenic mice with mammary cancer (FVB/n Tg(MMTV-PyVmT) and nude mice bearing SKOV-3 ovarian cancer xenograft were used for the in vivo therapeutic studies. When tumor volumes reached 4-5 mm in transgenic mice, crosslinked NPs with and without 2.5 mg/kg DOX were injected via tail vein once per week for 3 doses. After 24 hrs, tumors were illuminated with a diode laser system (Applied Optronics, Newport, Conn.) at 690 nm under general anaesthesia. […] Tumor temperatures were recorded with an infrared camera (Flir). Intratumoral ROS production after irradiation was measured using 2′,7′-dichlorofluorescin diacetate (DCF) mixed with 100 μL of tissue lysates derived from tumors treated with NPs and PBS. In some cases, the blood of the mice was drawn and the ROS and heat production in blood after irradiation were measured at predetermined time points. The hemolysis was also followed. Tumor volume was measured twice a week and mice were sacrificed once tumor size reached 1000 mm^3. Tumors were harvested for histopathological evaluation 24 hours post-irradiation. The SKOV-3 ovarian cancer xenograft model was established by injecting one million cells subcutaneously at lower flank area. […] Tumor sizes and body weight were measured twice a week, while mice were monitored daily for potential signs of toxicity. […]

[2] = test system: SKOV-3 ovarian cancer cells; assay: Cytotoxicity under dark conditions; assay type: cell-based, human; details: up to 1.0 mg/mL, 2 hrs exposure plus 22 hrs
Excerpt: K9TCC-Pu-In and 5637 bladder cancer cell lines and SKOV-3 ovarian cancer cell lines were used to evaluate the photosensitizing function of nano-porphyrins. […] 5-aminolevulinic acid (5-ALA), the traditional photodynamic diagnosis/therapy agent, was used as a control. In another experiments, DOX loaded nanoporphyrins were used to treat the cancer cells followed by light exposure. […]

COc1cccc2c1C(=O)c1c(O)c3c(c(O)c1C2=O)C[C@@](O)(C(=O)CO)C[C@@H]3O[C@H]1C[C@H](N)[C@H](O)[C@H](C)O1 [free DOX, doxorubicin]
tumor growth [1]: slower tumor growth

pyropheophorbide-a [free Por]
cytotoxicity without light irradiation [2]: significant cytoxicity
